pEC50, pIC50: −log10 of the molar value. Active and inactive are the calls of the source. The rule behind the calls is not given here.
Key:
[1] = target: Phosphatidylinositol 4,5-bisphosphate 3-kinase catalytic subunit gamma isoform (Homo sapiens, UniProt P48736); experiment: Inhibition of PI3K gamma by continuous TR-FRET assay
Mus musculus [2] = experiment: Inhibition of PI3K beta in human PTEN-deficient PC3 cells xenografted in nude mouse assessed as inhibition of AKT Ser473 phosphorylation at 100 and 300 mg/kg; format: functional, organism-based; set-up: dose 300 mg/kg; conditions: PC-3, TDE = time-dependent effect
Mus musculus [3] = experiment: Inhibition of PI3K beta in human PTEN-deficient PC3 cells xenografted in nude mouse assessed as inhibition of AKT Ser473 phosphorylation at 300 mg/kg at 10 hrs; format: functional; conditions: PC-3, 10 h
[4] = Clearance in CD mouse at 0.3 mg/kg, iv; format: ADME, organism-based; set-up: dose 0.3 mg/kg, route intravenous; conditions: in vivo
Mus musculus [5] = experiment: Toxicity in nude mouse xenografted with human PC3 cells assessed as body weight loss at 100 and 300 mg/kg administered QD for 21 days; format: organism-based, PC-3; set-up: dose 300 mg/kg; conditions: in vivo, 504 h
[6] = target: T1, Phosphatidylinositol 4,5-bisphosphate 3-kinase catalytic subunit delta isoform (Homo sapiens, UniProt O00329); experiment: Inhibition of PI3K delta by continuous TR-FRET assay
T1 sequence (O00329 whole entry): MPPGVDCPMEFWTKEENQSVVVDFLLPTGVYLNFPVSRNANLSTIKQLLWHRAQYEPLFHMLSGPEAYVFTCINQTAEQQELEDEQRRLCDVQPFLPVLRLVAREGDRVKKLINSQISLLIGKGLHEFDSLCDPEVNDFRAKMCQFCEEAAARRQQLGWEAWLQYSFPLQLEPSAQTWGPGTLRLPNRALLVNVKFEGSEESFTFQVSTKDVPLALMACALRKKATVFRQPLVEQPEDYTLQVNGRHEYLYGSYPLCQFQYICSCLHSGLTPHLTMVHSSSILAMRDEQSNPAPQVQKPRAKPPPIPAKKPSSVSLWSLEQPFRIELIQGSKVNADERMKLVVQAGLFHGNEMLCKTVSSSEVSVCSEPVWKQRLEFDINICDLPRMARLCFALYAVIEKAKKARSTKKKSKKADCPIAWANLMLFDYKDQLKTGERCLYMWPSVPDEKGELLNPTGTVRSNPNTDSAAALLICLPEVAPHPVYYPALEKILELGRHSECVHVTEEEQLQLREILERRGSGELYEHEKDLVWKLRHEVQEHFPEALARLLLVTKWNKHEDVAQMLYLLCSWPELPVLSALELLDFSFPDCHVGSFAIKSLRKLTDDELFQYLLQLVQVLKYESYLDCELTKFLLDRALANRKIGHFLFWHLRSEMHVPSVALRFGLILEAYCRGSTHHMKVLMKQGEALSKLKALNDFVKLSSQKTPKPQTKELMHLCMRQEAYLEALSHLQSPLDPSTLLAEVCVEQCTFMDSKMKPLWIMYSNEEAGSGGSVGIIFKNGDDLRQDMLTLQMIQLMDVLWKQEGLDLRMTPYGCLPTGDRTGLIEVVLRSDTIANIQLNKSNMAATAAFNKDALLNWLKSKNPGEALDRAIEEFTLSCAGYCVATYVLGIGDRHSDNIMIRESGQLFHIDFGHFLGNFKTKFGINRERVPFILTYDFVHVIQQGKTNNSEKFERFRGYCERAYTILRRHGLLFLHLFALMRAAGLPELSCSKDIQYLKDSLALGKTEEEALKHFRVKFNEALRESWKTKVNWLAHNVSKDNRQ

[7] = Volume of distribution at steady state in CD mouse at 0.3 mg/kg, iv; format: ADME, organism-based; set-up: dose 0.3 mg/kg, route intravenous; conditions: in vivo, read-out: Vdss
Mus musculus [8] = experiment: Inhibition of PI3K beta in human PTEN-deficient PC3 cells xenografted in nude mouse assessed as inhibition of AKT Ser473 phosphorylation at 100 mg/kg at 1 hr; format: functional; conditions: PC-3, 1 h
Mus musculus [9] = experiment: Inhibition of PI3K beta in human PTEN-deficient PC3 cells xenografted in nude mouse assessed as inhibition of AKT Ser473 phosphorylation at 100 mg/kg at 2 hrs; format: functional; conditions: PC-3, 2 h
PC-3 = experiment: Antitumor activity against human PC3 cells xenografted in nude mouse assessed as tumor growth inhibition at 100 and 300 mg/kg administered QD for 21 days relative to vehicle-treated control; format: functional, organism-based; set-up: dose 300 mg/kg
Mus musculus [10] = experiment: Inhibition of PI3K beta in human PTEN-deficient PC3 cells xenografted in nude mouse assessed as inhibition of AKT Ser473 phosphorylation at 300 mg/kg at 6 hrs; format: functional; conditions: PC-3, 6 h
Mus musculus [11] = experiment: Inhibition of PI3K beta in human PTEN-deficient PC3 cells xenografted in nude mouse assessed as inhibition of AKT Ser473 phosphorylation at 300 mg/kg at 2 hrs; format: functional; conditions: PC-3, 2 h
[12] = Half life in CD mouse at 0.3 mg/kg, iv; format: ADME, organism-based; set-up: dose 0.3 mg/kg, route intravenous; conditions: in vivo
Mus musculus [13] = experiment: Inhibition of PI3K beta in human PTEN-deficient PC3 cells xenografted in nude mouse assessed as inhibition of AKT Ser473 phosphorylation at 100 mg/kg at 4 hrs; format: functional; conditions: PC-3, 4 h
[14] = target: Phosphatidylinositol 4,5-bisphosphate 3-kinase catalytic subunit alpha isoform (Homo sapiens, UniProt P42336); experiment: Inhibition of PI3K alpha by continuous TR-FRET assay
Chain of Phosphatidylinositol 4,5-bisphosphate 3-kinase catalytic subunit alpha isoform (P42336 whole entry, canonical isoform): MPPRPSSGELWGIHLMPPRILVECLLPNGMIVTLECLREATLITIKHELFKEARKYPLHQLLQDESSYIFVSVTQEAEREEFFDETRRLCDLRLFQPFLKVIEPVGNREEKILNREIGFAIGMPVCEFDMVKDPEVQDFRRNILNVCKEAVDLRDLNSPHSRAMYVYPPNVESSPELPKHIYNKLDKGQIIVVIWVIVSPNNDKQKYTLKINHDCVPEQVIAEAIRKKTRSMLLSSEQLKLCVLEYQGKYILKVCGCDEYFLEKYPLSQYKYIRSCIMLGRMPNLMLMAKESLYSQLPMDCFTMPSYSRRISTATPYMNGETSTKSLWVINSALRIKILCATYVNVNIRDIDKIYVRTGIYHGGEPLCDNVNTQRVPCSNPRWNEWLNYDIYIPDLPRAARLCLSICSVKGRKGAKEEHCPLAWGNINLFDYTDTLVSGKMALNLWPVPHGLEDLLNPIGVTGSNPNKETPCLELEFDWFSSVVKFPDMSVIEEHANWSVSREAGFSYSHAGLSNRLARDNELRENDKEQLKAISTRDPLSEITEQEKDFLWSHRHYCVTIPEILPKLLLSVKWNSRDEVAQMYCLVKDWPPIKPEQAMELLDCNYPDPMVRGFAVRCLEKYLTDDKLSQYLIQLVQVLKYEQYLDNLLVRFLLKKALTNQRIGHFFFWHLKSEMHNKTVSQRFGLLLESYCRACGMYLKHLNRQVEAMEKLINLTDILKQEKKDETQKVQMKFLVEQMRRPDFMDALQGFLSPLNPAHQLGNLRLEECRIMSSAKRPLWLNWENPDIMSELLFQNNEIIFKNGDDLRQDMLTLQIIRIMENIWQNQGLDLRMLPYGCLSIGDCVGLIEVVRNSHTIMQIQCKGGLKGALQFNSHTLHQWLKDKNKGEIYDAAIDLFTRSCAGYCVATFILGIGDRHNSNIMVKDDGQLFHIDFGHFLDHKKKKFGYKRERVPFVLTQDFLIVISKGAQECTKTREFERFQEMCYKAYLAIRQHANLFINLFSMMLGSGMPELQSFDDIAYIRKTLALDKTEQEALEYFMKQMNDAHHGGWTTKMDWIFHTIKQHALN

[15] = Oral bioavailability in CD mouse at 100 mg/kg; format: ADME, organism-based; conditions: in vivo
Mus musculus [16] = experiment: Inhibition of PI3K beta in human PTEN-deficient PC3 cells xenografted in nude mouse assessed as inhibition of AKT Ser473 phosphorylation at 300 mg/kg at 24 hrs; format: functional; conditions: PC-3, 24 h
[17] = target: T2, Phosphatidylinositol 4,5-bisphosphate 3-kinase catalytic subunit beta isoform (Homo sapiens, UniProt P42338); experiment: Inhibition of PI3K beta by continuous TR-FRET assay
T2 sequence (P42338 whole entry, canonical isoform): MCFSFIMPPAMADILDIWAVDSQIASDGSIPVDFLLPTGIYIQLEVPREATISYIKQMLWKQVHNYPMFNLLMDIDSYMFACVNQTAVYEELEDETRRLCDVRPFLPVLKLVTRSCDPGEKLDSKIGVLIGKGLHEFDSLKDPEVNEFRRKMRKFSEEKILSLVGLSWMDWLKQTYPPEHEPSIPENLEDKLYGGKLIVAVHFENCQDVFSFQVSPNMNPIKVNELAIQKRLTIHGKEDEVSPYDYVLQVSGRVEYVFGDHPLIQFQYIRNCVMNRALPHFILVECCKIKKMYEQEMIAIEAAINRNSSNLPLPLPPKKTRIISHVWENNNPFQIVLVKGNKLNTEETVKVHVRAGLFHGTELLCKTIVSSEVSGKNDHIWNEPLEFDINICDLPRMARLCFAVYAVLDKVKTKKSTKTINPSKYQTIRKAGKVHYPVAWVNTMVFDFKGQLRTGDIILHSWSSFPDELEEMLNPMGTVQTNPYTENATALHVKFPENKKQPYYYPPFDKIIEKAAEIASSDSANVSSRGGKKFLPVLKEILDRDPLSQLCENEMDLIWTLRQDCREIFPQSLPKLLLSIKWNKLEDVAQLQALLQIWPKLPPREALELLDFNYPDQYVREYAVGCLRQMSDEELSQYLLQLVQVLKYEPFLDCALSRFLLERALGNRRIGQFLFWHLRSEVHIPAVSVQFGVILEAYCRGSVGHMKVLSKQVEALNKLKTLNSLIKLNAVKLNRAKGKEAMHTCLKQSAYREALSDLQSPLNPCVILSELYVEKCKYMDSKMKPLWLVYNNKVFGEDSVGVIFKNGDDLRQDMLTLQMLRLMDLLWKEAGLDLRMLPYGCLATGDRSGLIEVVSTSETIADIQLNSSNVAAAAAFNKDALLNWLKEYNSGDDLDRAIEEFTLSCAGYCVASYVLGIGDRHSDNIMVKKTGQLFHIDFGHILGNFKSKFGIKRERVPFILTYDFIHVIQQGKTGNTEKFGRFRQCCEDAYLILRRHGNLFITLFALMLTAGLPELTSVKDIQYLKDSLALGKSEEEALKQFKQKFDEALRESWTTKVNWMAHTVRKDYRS

MDA-MB-468 = experiment: Antiproliferative activity against PTEN-deficient human MDA-MB-468 cells; format: functional
Nucleic Acid = experiment: Ratio of drug uptake in tumor at 300 mg/kg to drug uptake in tumor at 100 mg/kg in nude mouse bearing PC3 cells; format: functional, organism-based; conditions: Neoplasm, PC-3
Mus musculus [18] = experiment: Inhibition of PI3K beta in human PTEN-deficient PC3 cells xenografted in nude mouse assessed as inhibition of AKT Ser473 phosphorylation at 100 mg/kg at 24 hrs; format: functional; conditions: PC-3, 24 h
Mus musculus [19] = experiment: Inhibition of PI3K beta in human PTEN-deficient PC3 cells xenografted in nude mouse assessed as inhibition of AKT Ser473 phosphorylation at 300 mg/kg at 4 hrs; format: functional; conditions: PC-3, 4 h
Mus musculus [20] = experiment: Inhibition of PI3K beta in human PTEN-deficient PC3 cells xenografted in nude mouse assessed as inhibition of AKT Ser473 phosphorylation at 100 mg/kg at 6 hrs; format: functional; conditions: PC-3, 6 h
Mus musculus [21] = experiment: Inhibition of PI3K beta in human PTEN-deficient PC3 cells xenografted in nude mouse assessed as inhibition of AKT Ser473 phosphorylation at 300 mg/kg at 8 hrs; format: functional; conditions: PC-3, 8 h
Mus musculus [22] = experiment: Inhibition of PI3K beta in human PTEN-deficient PC3 cells xenografted in nude mouse assessed as inhibition of AKT Ser473 phosphorylation at 300 mg/kg at 1 hr; format: functional; conditions: PC-3, 1 h
Mus musculus [23] = experiment: Dose normalized AUC in CD mouse at 100 mg/kg, po; format: ADME, organism-based; set-up: dose 100 mg/kg, route oral; conditions: in vivo
Mus musculus [24] = experiment: Inhibition of PI3K beta in human PTEN-deficient PC3 cells xenografted in nude mouse assessed as inhibition of AKT Ser473 phosphorylation at 100 mg/kg at 10 hrs; format: functional; conditions: PC-3, 10 h
Blood = experiment: Ratio of drug uptake in blood at 300 mg/kg to drug uptake in blood at 100 mg/kg in nude mouse bearing PC3 cells; format: functional, PC-3
[25] = target: T2, Phosphatidylinositol 4,5-bisphosphate 3-kinase catalytic subunit beta isoform; experiment: Inhibition of PI3K beta in human PTEN-deficient MDA-MB-468 cells assessed as inhibition of Akt Ser473 phosphorylation; format: cell-based
Mus musculus [26] = experiment: Inhibition of PI3K beta in human PTEN-deficient PC3 cells xenografted in nude mouse assessed as inhibition of AKT Ser473 phosphorylation at 100 mg/kg at 8 hrs; format: functional; conditions: PC-3, 8 h

Chain of Phosphatidylinositol 4,5-bisphosphate 3-kinase catalytic subunit gamma isoform (P48736 whole entry, canonical isoform): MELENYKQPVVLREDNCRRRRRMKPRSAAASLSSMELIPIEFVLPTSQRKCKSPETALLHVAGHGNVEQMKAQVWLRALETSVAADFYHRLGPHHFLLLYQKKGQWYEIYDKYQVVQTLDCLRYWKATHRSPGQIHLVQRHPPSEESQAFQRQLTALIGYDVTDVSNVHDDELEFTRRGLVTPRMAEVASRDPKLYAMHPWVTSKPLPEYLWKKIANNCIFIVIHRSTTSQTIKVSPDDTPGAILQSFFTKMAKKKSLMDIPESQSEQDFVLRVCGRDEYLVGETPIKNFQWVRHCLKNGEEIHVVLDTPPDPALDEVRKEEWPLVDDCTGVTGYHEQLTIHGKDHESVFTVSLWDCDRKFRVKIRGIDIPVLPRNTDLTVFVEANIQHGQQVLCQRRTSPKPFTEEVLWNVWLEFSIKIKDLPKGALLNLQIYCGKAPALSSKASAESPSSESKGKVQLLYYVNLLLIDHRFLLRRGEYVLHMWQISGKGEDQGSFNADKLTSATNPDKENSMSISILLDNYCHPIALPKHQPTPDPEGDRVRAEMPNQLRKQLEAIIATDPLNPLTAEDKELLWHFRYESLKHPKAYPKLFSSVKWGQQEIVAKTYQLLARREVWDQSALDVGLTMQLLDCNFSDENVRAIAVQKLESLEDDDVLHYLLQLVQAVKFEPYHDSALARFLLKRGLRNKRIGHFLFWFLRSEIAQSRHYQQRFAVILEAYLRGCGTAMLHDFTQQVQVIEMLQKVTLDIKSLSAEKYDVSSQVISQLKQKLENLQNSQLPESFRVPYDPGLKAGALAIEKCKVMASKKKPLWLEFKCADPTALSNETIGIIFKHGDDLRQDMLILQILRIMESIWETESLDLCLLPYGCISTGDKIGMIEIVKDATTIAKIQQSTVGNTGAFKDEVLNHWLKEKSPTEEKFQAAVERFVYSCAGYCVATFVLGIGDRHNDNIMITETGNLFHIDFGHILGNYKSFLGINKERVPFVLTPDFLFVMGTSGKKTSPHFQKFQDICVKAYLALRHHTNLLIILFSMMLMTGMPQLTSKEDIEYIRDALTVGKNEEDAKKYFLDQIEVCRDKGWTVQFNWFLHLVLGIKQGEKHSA

pIC50 [1]: 6.10
clearance [4]: 29.6 mL/min/kg
pIC50 [6]: 7.70
Vd [7]: 2.8 L/kg
half-life [12]: 1.2 h
pIC50 [14]: 5.60
bioavailability [15]: 49%
pIC50 [17]: 9.22
GI50 (MDA-MB-468): 103 nM
AUC/dose (Mus musculus [23]): 278 ng/(hr.mL.mg.kg)
pEC50 [25]: 7.62
Structure (SMILES): Cc1c(Cn2c(C)nc(=O)c3sc(N4CCOCC4)nc32)cccc1C(F)(F)F
inhibition (Mus musculus [2]): tde
inhibition in vivo at 300 mg/kg (Mus musculus [3]): 24%
Activity (Mus musculus [5]): Non-toxic
inhibition in vivo at 100 mg/kg (Mus musculus [8]): 63%
inhibition in vivo at 100 mg/kg (Mus musculus [9]): 53%
TGI (PC-3): Active
inhibition in vivo at 300 mg/kg (Mus musculus [10]): 64%
inhibition in vivo at 300 mg/kg (Mus musculus [11]): 72%
inhibition in vivo at 100 mg/kg (Mus musculus [13]): 58%
inhibition in vivo at 300 mg/kg (Mus musculus [16]): -1%
Ratio (Nucleic Acid): 1.2
inhibition in vivo at 100 mg/kg (Mus musculus [18]): -17%
inhibition in vivo at 300 mg/kg (Mus musculus [19]): 63%
inhibition in vivo at 100 mg/kg (Mus musculus [20]): 64%
inhibition in vivo at 300 mg/kg (Mus musculus [21]): 48%
inhibition in vivo at 300 mg/kg (Mus musculus [22]): 68%
inhibition in vivo at 100 mg/kg (Mus musculus [24]): 33%
Ratio (Blood): 1.2
inhibition in vivo at 100 mg/kg (Mus musculus [26]): 46%

Source: ChEMBL document CHEMBL2086270, “Rational Design, Synthesis, and SAR of a Novel Thiazolopyrimidinone Series of Selective PI3K-beta Inhibitors” (ACS Med Chem Lett, 2012)
